Test results: patent publication US9295258B2, “Synergistic pesticidal compositions and related methods” (DOW AGROSCIENCES LLC, priority 2013, dated 2016)

Legend:
[1] = tested on: Diamondback Moth, Plutella xylostella; assay: Diamondback moth percent control on treated cabbage leaf discs (track sprayer), synergy by Colby's equation; type: in vivo
From the text: (§1) The method described in Colby S. R., “Calculating Synergistic and Antagonistic Responses of Herbicide Combinations,” Weeds, 1967, 15, 20-22 was used to determine an existence of synergic effect between the ecdysone receptor agonist compound and the pesticide in the formulated pesticidal composition. In this method, the percent insect control of the formulated pesticidal composition as observed in the study was compared to the “expected” percent control (E) as calculated by equation (1) (hereinafter “Colby's equation”) below: […]
(§2) X is the percentage of control with the first pesticide at a given rate (p),
(§3) Y is the percentage of control with the second pesticide at a given rate (q), and
E is the expected control by the first and second pesticide at a rate of p+q.
Bioassays were performed for different active compounds. […] The “Colby's Expected Action” was calculated using Colby's equation as discussed previously.
(§4) Bioassays were performed for different active compounds. […] The “Colby's Expected Action” was calculated using Colby's equation as discussed previously. […]
as §4

[2] = tested on: Cotton Aphid, Aphis gossypii (Glover); assay: Cotton aphid percent control on treated cotton plants (track sprayer), synergy by Colby's equation; type: in vivo; conditions: cotton plants at cotyledon stage
From the text: as §1, §2, §3
E is the expected control by the first and second pesticide at a rate of p+q. […]
Cotton plants at cotyledon stage were treated with different active compounds using track sprayer. […] The percent control of the pesticidal composition against cotton aphid, Aphis gossypii (Glover), was determined as the “Observed” action, and compared to those obtained by using about 0.002 weight % of compound II, and using about 0.005 weight % of methoxyfenozide alone. The “Colby's Expected Action” was calculated using Colby's equation as discussed previously.

**Q.** How did the “Average % Control Five Days After Treatment” value ([1]; Compound I alone (1:0), average of 0.0025, 0.000625 and 0.0001531 weight %) turn out when `CCN(C(=O)CCSCCC(F)(F)F)c1cn(-c2cccnc2)nc1Cl` [Compound I, N-(3-chloro-1-(pyridin-3-yl)-1H-pyrazol-4-yl)-N-ethyl-3-((3,3,3-trifluoropropyl)thio)propanamide] was run?
**A.** 7.58%

**Q.** With `CCN(C(=O)CC[S+]([O-])CCC(F)(F)F)c1cn(-c2cccnc2)nc1Cl` (stereo not shown) [Compound II, N-(3-chloro-1-(pyridin-3-yl)-1H-pyrazol-4-yl)-N-ethyl-3-((3,3,3-trifluoropropyl)sulfinyl)propanamide] as the compound, how does the “% Control Three Days After Treatment” value ([2]; Compound II alone, dose rate 0.002 weight %) read?
**A.** 28%

**Q.** How did the “% Control Three Days After Treatment” value ([2]; Methoxyfenozide alone, dose rate 0.005 weight %) turn out when `COc1cccc(C(=O)NN(C(=O)c2cc(C)cc(C)c2)C(C)(C)C)c1C` [Methoxyfenozide, 3-methoxy-2-methylbenzoic acid 2-(3,5-dimethylbenzoyl)-2-(1,1-dimethylethyl)hydrazide] was run?
**A.** 23%

**Q.** What about the “Average % Control Five Days After Treatment” value ([1]; Methoxyfenozide alone (0:1), average of 0.02, 0.005, 0.00125 and 0.0003125 weight %) of the same compound?
**A.** 15.9%
